Source: ChEMBL document CHEMBL3137667, “[Drug-induced liver injury; fourteenth updated edition of the bibliographic database of liver injuries and related drugs]” (Gastroenterol Clin Biol, 2004)

Tests used:
[1] = human
[2] = human; remark: listed apart in the source
[3] = Times to onset, minimal and maximal, observed in the indexed observations. [column 'DELAI' in source]; conditions: human
[4] = human; remark: listed apart in the source
[5] = human; remark: listed apart in the source
[6] = human; remark: listed apart in the source
[7] = human; remark: listed apart in the source
[8] = human, serum
[9] = human; remark: listed apart in the source
[10] = human; remark: listed apart in the source
[11] = human; remark: listed apart in the source
[12] = human, serum, 4383 h
[13] = Highest frequency of moderate liver toxicity observed during clinical trials, expressed as a percentage. [column '% BIOL' in source]; conditions: human
[14] = human, serum; remark: listed apart in the source
[15] = Highest frequency of acute liver toxicity observed during clinical trials, expressed as a percentage. [column '% AIGUE' in source]; conditions: human
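Throughout, for Hepatotoxicity (association with vascular disease): count of indexed literature references reporting vascular liver injury in humans, e.g. peliosis hepatitis, hepatic veno-occlusive disease or Budd-Chiari syndrome.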
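Throughout, for Hepatotoxicity (benign tumour): value is a count of indexed literature references citing a benign tumour confirmed by histopathology.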
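Throughout, for Hepatotoxicity (choleostasis): human cholestatic liver injury, shown by histopathology or by peak ALT or AST elevation over alkaline phosphatase ratio below 2, value counts indexed literature reports.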
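Throughout, for Hepatotoxicity (chronic liver disease): chronic liver injury confirmed by histopathology or persistently raised serum aminotransferase activity beyond 6 months, value given as the count of indexed literature references.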
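Throughout, for Hepatotoxicity (cirrhosis): value is a count of indexed literature references reporting cirrhosis confirmed by histopathology.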
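Throughout, for Hepatotoxicity (cytolytic): human cytolytic liver injury, shown by histopathology or by a ratio above 5 of peak ALT or AST elevation to alkaline phosphatase elevation, value counts indexed references.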
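Throughout, for Hepatotoxicity (granulomatous hepatitis): value is a count of indexed literature references reporting granulomatous liver disease confirmed by histopathology.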
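Throughout, for Hepatotoxicity (malignant tumour): malignant tumour confirmed by histopathology, value gives the count of indexed literature references reporting it.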
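Throughout, for Hepatotoxicity (severe hepatitis): human clinical data: severe hepatitis, meaning potentially life-threatening liver failure or clinically observed cases, the value counts how many indexed literature references report it.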
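Throughout, for Hepatotoxicity (steatosis): steatosis confirmed by histopathology, value is the count of indexed references.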

## Cc1c(-c2ccccc2)oc2c(C(=O)OCCN3CCCCC3)cccc2c1=O [FLAVOXATE]
[1]
  Hepatotoxicity (cytolytic): 1
[2]
  Hepatotoxicity (steatosis): 0
[3]
  Hepatotoxicity (time to onset): 2.5 months
[4]
  Hepatotoxicity (granulomatous hepatitis): 0
[5]
  Hepatotoxicity (malignant tumour): 0
[6]
  Hepatotoxicity (choleostasis): 0
[7]
  Hepatotoxicity (benign tumour): 0
[8]
  Hepatotoxicity (acute): 1
[9]
  Hepatotoxicity (association with vascular disease): 0
[10]
  Hepatotoxicity (severe hepatitis): 0
[11]
  Hepatotoxicity (cirrhosis): 0
[12]
  Hepatotoxicity (chronic liver disease): 0
[13]
  Hepatotoxicity (moderate): 0%
[14]
  Hepatotoxicity (moderate): 0
[15]
  Hepatotoxicity (acute): 0%

## COc1ccnc(C[S+]([O-])c2nc3ccc(OC(F)F)cc3[nH]2)c1OC (stereo not given) [PANTOPRAZOLE]
[1]
  Hepatotoxicity (cytolytic): 2
[2]
  Hepatotoxicity (steatosis): 0
[3]
  Hepatotoxicity (time to onset): 2 days - 8 days
[4]
  Hepatotoxicity (granulomatous hepatitis): 0
[5]
  Hepatotoxicity (malignant tumour): 0
[6]
  Hepatotoxicity (choleostasis): 0
[7]
  Hepatotoxicity (benign tumour): 0
[8]
  Hepatotoxicity (acute): 2
[9]
  Hepatotoxicity (association with vascular disease): 0
[10]
  Hepatotoxicity (severe hepatitis): 1
[11]
  Hepatotoxicity (cirrhosis): 0
[12]
  Hepatotoxicity (chronic liver disease): 0
[13]
  Hepatotoxicity (moderate): 8.3%
[14]
  Hepatotoxicity (moderate): 13
[15]
  Hepatotoxicity (acute): 0%

## NC[C@H]1O[C@H](O[C@H]2[C@H](O)[C@@H](O[C@H]3O[C@H](CO)[C@@H](O)[C@H](N)[C@H]3O)[C@H](N)C[C@@H]2N)[C@H](N)C[C@@H]1O [TOBRAMYCIN]
[1]
  Hepatotoxicity (cytolytic): 0
[2]
  Hepatotoxicity (steatosis): 0
[3]
  Hepatotoxicity (time to onset): 1 day - 3 weeks
[4]
  Hepatotoxicity (granulomatous hepatitis): 0
[5]
  Hepatotoxicity (malignant tumour): 0
[6]
  Hepatotoxicity (choleostasis): 0
[7]
  Hepatotoxicity (benign tumour): 0
[8]
  Hepatotoxicity (acute): 1
[9]
  Hepatotoxicity (association with vascular disease): 0
[10]
  Hepatotoxicity (severe hepatitis): 0
[11]
  Hepatotoxicity (cirrhosis): 0
[12]
  Hepatotoxicity (chronic liver disease): 0
[13]
  Hepatotoxicity (moderate): 23.5%
[14]
  Hepatotoxicity (moderate): 12
[15]
  Hepatotoxicity (acute): 0%

## CCC1=C[C@@H]2CN(C1)Cc1c([nH]c3ccccc13)[C@@](C(=O)OC)(c1cc3c(cc1OC)N(C)[C@H]1[C@@](O)(C(=O)OC)[C@H](OC(C)=O)[C@]4(CC)C=CCN5CC[C@]31[C@@H]54)C2 [VINORELBINE]
[1]
  Hepatotoxicity (cytolytic): 2
[2]
  Hepatotoxicity (steatosis): 0
[3]
  Hepatotoxicity (time to onset): 2 days - 10 days
[4]
  Hepatotoxicity (granulomatous hepatitis): 0
[5]
  Hepatotoxicity (malignant tumour): 0
[6]
  Hepatotoxicity (choleostasis): 0
[7]
  Hepatotoxicity (benign tumour): 0
[8]
  Hepatotoxicity (acute): 3
[9]
  Hepatotoxicity (association with vascular disease): 0
[10]
  Hepatotoxicity (severe hepatitis): 1
[11]
  Hepatotoxicity (cirrhosis): 0
[12]
  Hepatotoxicity (chronic liver disease): 0
[13]
  Hepatotoxicity (moderate): 24.1%
[14]
  Hepatotoxicity (moderate): 6
[15]
  Hepatotoxicity (acute): 6%

## NS(=O)(=O)c1cc(C(=O)O)cc(N2CCCC2)c1Oc1ccccc1 [PIRETANIDE]
[1]
  Hepatotoxicity (cytolytic): 1
[2]
  Hepatotoxicity (steatosis): 0
[3]
  Hepatotoxicity (time to onset): 3 weeks
[4]
  Hepatotoxicity (granulomatous hepatitis): 0
[5]
  Hepatotoxicity (malignant tumour): 0
[6]
  Hepatotoxicity (choleostasis): 0
[7]
  Hepatotoxicity (benign tumour): 0
[8]
  Hepatotoxicity (acute): 1
[9]
  Hepatotoxicity (association with vascular disease): 0
[10]
  Hepatotoxicity (severe hepatitis): 0
[11]
  Hepatotoxicity (cirrhosis): 0
[12]
  Hepatotoxicity (chronic liver disease): 0
[13]
  Hepatotoxicity (moderate): 0%
[14]
  Hepatotoxicity (moderate): 0
[15]
  Hepatotoxicity (acute): 0%

## CN(C)CCn1nnnc1SCC1=C(C(=O)O)N2C(=O)[C@@H](NC(=O)Cc3csc(N)n3)[C@H]2SC1 [CEFOTIAM]
[1]
  Hepatotoxicity (cytolytic): 0
[2]
  Hepatotoxicity (steatosis): 0
[3]
  Hepatotoxicity (time to onset): 4 days
[4]
  Hepatotoxicity (granulomatous hepatitis): 0
[5]
  Hepatotoxicity (malignant tumour): 0
[6]
  Hepatotoxicity (choleostasis): 0
[7]
  Hepatotoxicity (benign tumour): 0
[8]
  Hepatotoxicity (acute): 1
[9]
  Hepatotoxicity (association with vascular disease): 0
[10]
  Hepatotoxicity (severe hepatitis): 0
[11]
  Hepatotoxicity (cirrhosis): 0
[12]
  Hepatotoxicity (chronic liver disease): 0
[13]
  Hepatotoxicity (moderate): 33%
[14]
  Hepatotoxicity (moderate): 8
[15]
  Hepatotoxicity (acute): 0.8%

## CS(=O)(=O)c1ccc2c(c1)N(CCCN1CCC(C(N)=O)CC1)c1ccccc1S2 [METOPIMAZINE]
[1]
  Hepatotoxicity (cytolytic): 1
[2]
  Hepatotoxicity (steatosis): 0
[3]
  Hepatotoxicity (time to onset): 1 month
[4]
  Hepatotoxicity (granulomatous hepatitis): 0
[5]
  Hepatotoxicity (malignant tumour): 0
[6]
  Hepatotoxicity (choleostasis): 1
[7]
  Hepatotoxicity (benign tumour): 0
[8]
  Hepatotoxicity (acute): 1
[9]
  Hepatotoxicity (association with vascular disease): 0
[10]
  Hepatotoxicity (severe hepatitis): 0
[11]
  Hepatotoxicity (cirrhosis): 0
[12]
  Hepatotoxicity (chronic liver disease): 0
[13]
  Hepatotoxicity (moderate): 0%
[14]
  Hepatotoxicity (moderate): 0
[15]
  Hepatotoxicity (acute): 0%

## IVERMECTIN
[1]
  Hepatotoxicity (cytolytic): 0
[2]
  Hepatotoxicity (steatosis): 0
[3]
  Hepatotoxicity (time to onset): 2 days - 1 week
[4]
  Hepatotoxicity (granulomatous hepatitis): 0
[5]
  Hepatotoxicity (malignant tumour): 0
[6]
  Hepatotoxicity (choleostasis): 0
[7]
  Hepatotoxicity (benign tumour): 0
[8]
  Hepatotoxicity (acute): 0
[9]
  Hepatotoxicity (association with vascular disease): 0
[10]
  Hepatotoxicity (severe hepatitis): 0
[11]
  Hepatotoxicity (cirrhosis): 0
[12]
  Hepatotoxicity (chronic liver disease): 0
[13]
  Hepatotoxicity (moderate): 23.3%
[14]
  Hepatotoxicity (moderate): 5
[15]
  Hepatotoxicity (acute): 0%

## CN[C@@H]1[C@H](O)[C@H](NC)[C@H]2O[C@@]3(O)C(=O)C[C@@H](C)O[C@H]3O[C@@H]2[C@H]1O [SPECTINOMYCIN]
[1]
  Hepatotoxicity (cytolytic): 0
[2]
  Hepatotoxicity (steatosis): 0
[3]
  Hepatotoxicity (time to onset): 3 days
[4]
  Hepatotoxicity (granulomatous hepatitis): 0
[5]
  Hepatotoxicity (malignant tumour): 0
[6]
  Hepatotoxicity (choleostasis): 1
[7]
  Hepatotoxicity (benign tumour): 0
[8]
  Hepatotoxicity (acute): 1
[9]
  Hepatotoxicity (association with vascular disease): 0
[10]
  Hepatotoxicity (severe hepatitis): 0
[11]
  Hepatotoxicity (cirrhosis): 0
[12]
  Hepatotoxicity (chronic liver disease): 0
[13]
  Hepatotoxicity (moderate): 0%
[14]
  Hepatotoxicity (moderate): 1
[15]
  Hepatotoxicity (acute): 0%

## CC(C)[N+](C)(CCC(C(N)=O)(c1ccccc1)c1ccccc1)C(C)C [ISOPROPAMIDE]
[1]
  Hepatotoxicity (cytolytic): 1
[2]
  Hepatotoxicity (steatosis): 0
[3]
  Hepatotoxicity (time to onset): 3 months
[4]
  Hepatotoxicity (granulomatous hepatitis): 0
[5]
  Hepatotoxicity (malignant tumour): 0
[6]
  Hepatotoxicity (choleostasis): 0
[7]
  Hepatotoxicity (benign tumour): 0
[8]
  Hepatotoxicity (acute): 1
[9]
  Hepatotoxicity (association with vascular disease): 0
[10]
  Hepatotoxicity (severe hepatitis): 0
[11]
  Hepatotoxicity (cirrhosis): 0
[12]
  Hepatotoxicity (chronic liver disease): 0
[13]
  Hepatotoxicity (moderate): 0%
[14]
  Hepatotoxicity (moderate): 0
[15]
  Hepatotoxicity (acute): 0%

## O=c1[nH]c2ccccc2n1CCCN1CCC(n2c(=O)[nH]c3cc(Cl)ccc32)CC1 [DOMPERIDONE]
[1]
  Hepatotoxicity (cytolytic): 1
[2]
  Hepatotoxicity (steatosis): 0
[3]
  Hepatotoxicity (time to onset): < 1 week
[4]
  Hepatotoxicity (granulomatous hepatitis): 0
[5]
  Hepatotoxicity (malignant tumour): 0
[6]
  Hepatotoxicity (choleostasis): 0
[7]
  Hepatotoxicity (benign tumour): 0
[8]
  Hepatotoxicity (acute): 1
[9]
  Hepatotoxicity (association with vascular disease): 0
[10]
  Hepatotoxicity (severe hepatitis): 0
[11]
  Hepatotoxicity (cirrhosis): 0
[12]
  Hepatotoxicity (chronic liver disease): 0
[13]
  Hepatotoxicity (moderate): 0%
[14]
  Hepatotoxicity (moderate): 0
[15]
  Hepatotoxicity (acute): 0%
